Measurements published in patent US6479528B1, “Methods for inhibiting or reversing tau filament formation polymerization” (Neuronautics, Inc., priority 2001, dated 2002).
Where “and” joins values, the source holds several entries; their conditions need not be identical. Equal entries are not always repeated. Entries after “also recorded” stand apart in the source; their conditions may differ. Where two headings read alike, the source gives them in different places. One block for each compound: values may come before it.

Legend:
[1] = target: T1, synthetic tau filaments (htau40) (Homo sapiens, UniProt P10636); assay: Disassembly of preassembled synthetic tau filaments, dose response; assay type: biochemical; conditions: filaments assembled 3 hours; read-out: IC50, dose response on preassembled tau filaments (data not shown)
T1 construct: synthetic straight filaments prepared from recombinant full-length tau; made in house
T1 sequence (P10636 1-441 isoform P10636-8): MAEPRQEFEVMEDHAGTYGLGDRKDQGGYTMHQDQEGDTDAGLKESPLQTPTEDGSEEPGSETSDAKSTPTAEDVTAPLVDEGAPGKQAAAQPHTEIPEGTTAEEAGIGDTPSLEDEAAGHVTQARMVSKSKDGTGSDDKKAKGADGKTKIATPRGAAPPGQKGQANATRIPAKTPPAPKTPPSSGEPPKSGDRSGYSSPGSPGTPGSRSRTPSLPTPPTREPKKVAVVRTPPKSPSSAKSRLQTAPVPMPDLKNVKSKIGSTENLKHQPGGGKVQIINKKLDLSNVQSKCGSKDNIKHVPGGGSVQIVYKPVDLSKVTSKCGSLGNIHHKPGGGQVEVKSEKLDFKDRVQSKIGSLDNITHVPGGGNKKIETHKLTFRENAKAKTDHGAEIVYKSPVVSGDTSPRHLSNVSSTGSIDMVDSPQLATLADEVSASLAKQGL
Procedure: (§1) Tau Depolymerization. Solutions of purified htau40 or htau40^C291A, C322A (8 mM) were polymerized as described above for 3.5 hours. To assay dilution-mediated depolymerization, aliquots (50 ml) of reaction product were injected into a stirred quartz cuvette containing 1 ml of polymerization buffer with 4 mM thioflavin S and fluorescence decay followed as a function of time (room temperature). When present, arachidonic acid was 50 mM and tau was held at 2 mM.
To assay inhibitor-mediated depolymerization, compound I′ was added to polymerized tau to a final concentration of 0.2 mM into two separate microcentrifuge tubes. Aliquots were removed from each sample after 10, 20, 30, 45, 60 minutes incubation and subjected to fluorescence or electron microscopy assays described below. […]
(§2) Fluorescence. Tau aggregation and disassembly were monitored by following thioflavin S fluorescence as described previously (King et al., 1999). Inhibitory activity of compound I′ was quantified by fitting the resultant data to the relationship
To determine whether compound I′ also could destabilize mature filaments and mimic the depolymerization observed in dilution experiments, tau filaments assembled in the presence of thioflavin S for 3 hours under standard conditions were incubated in the presence or absence of compound I′ (200 nM) and examined after various times by electron microscopy and fluorescence.

recombinant human htau40 = target: T2, recombinant human htau40 (Homo sapiens, UniProt P10636); assay: Thioflavin S fluorescence assay of arachidonic acid-induced tau polymerization; assay type: biochemical
T2 construct: synthetic straight filaments prepared from recombinant full-length tau; made in house
T2 sequence (P10636 1-441 isoform P10636-8): as above
Procedure: (§3) Tau Polymerization. Purified isoforms of tau were polymerized as described previously (Wilson et al., Am. J. Pathol. 150: 2181 (1997); King et al., Biochemistry 38: 14851 (1999); King et al., J. Neurochem. 74: 1749 (2000)). Briefly, 2-8 mM (final concentration) htau40 or mutant htau40^C291A, C322A was incubated at room temperature in the presence or absence of 2-[[4-(dimethylamino)phenyl]azo]-6-methoxylbenzothiazole (compound I′) with polymerization buffer (10 mM 4-[2-hydroxyethyl]-1-piperazineethanesulfonic acid, 100 mM NaCl, and 5 mM DTT) containing 4 mM thioflavin S. Polymerization was induced by the addition of arachidonic acid (75-100 mM) and continued until analyzed by fluorescence or electron microscopy assays described below. When present, compound I′ final concentration varied from 0.05-2 mM. Control reactions were normalized for DMSO vehicle, which was limited to 5% in all reactions.
as §2
A=A0+(Amax−A0)/[1+10^(log IC50−logX)]
where A and A0 are blank-adjusted fluorescence in the presence and absence of inhibitor (at concentration X), respectively. IC50 values were calculated using the nonlinear regression algorithm of GRAPHPAD PRISM (GraphPad Software Inc.).
Inhibition of tau Polymerization. […] 31, 2000. 2-[[4-(Dimethylamino)phenyl]azo]-6-methoxylbenzothiazole (compound I′), an uncharged (at physiological pH) member of the azo dye family that includes Congo Red, was identified as having inhibitory activity against htau40.
The effect of compound I′ on polymerization of htau40 (2 mM) was quantified using a thioflavin S (2-4 mM) fluorescence assay (King et al., 1999).

Aβ1-40 = target: T3, Aβ1-40 (Homo sapiens, UniProt P05067); assay: Aβ1-40 aggregation, turbidity at 350 nm; assay type: biochemical; conditions: 20 μM (20 mM in the source) compound, stoichiometric with Aβ
T3 construct: Stock solutions of Aβ1-40 (Bachem; Philadelphia, Pa.) were prepared in DMSO; purchased Bachem
T3 sequence (P05067 672-711 limits assumed): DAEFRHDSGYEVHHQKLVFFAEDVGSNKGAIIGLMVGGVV
Procedure: Aβ1-40 Aggregation. Stock solutions of Aβ (1 mM) were prepared in DMSO and filtered (0.2 mM cutoff). Aggregation was initiated by diluting the Aβb stock solution to 20 mM final concentration in aggregation buffer (150 mM NaCl, 10 mM 2-[N-morpholino]ethanesulfonic acid, pH 6.2; final volume 100 mL). Turbidity resulting from Aβ aggregation in the presence (20 mM final concentration) and absence of compound I′ was monitored as a function of time in a Beckman DU640B spectrophotometer at 350 nm versus a DMSO vehicle blank (Snyder et al., Biophys. J. 67: 1216 (1994); Evans et al., Proc. Natl. Acad. Sci. USA 92: 763 (1995)). Cuvettes were rapidly inverted before each reading.
Selectivity of tau Polymerization Antagonism. […] To determine whether amyloid binding was accompanied by polymerization inhibitory activity, the ability of compound I′ to inhibit spontaneous Aβ1-40 assembly was examined. In the absence of ligand, Aβ1-40 (20 mM) polymerized spontaneously after a lag of 1 hour (FIG. 6).

[2] = Charge state at physiological pH; assay type: physicochemical
[3] = target: T4, htau40^C291A, C322A filaments (Homo sapiens, UniProt P10636, C608A/C639A); assay: Inhibitor-mediated depolymerization of preassembled synthetic tau filaments, electron microscopy time course; assay type: biochemical
T4 construct: synthetic straight filaments prepared from recombinant full-length tau; made in house
T4 sequence (P10636 1-441 isoform P10636-8 C291A/C322A): as the sequence (P10636 1-441 isoform P10636-8) above, with C291A, C322A counted along it
Procedure: as §1
To assay inhibitor-mediated depolymerization, compound I′ was added to polymerized tau to a final concentration of 0.2 mM into two separate microcentrifuge tubes. Aliquots were removed from each sample after 10, 20, 30, 45, 60 minutes incubation and subjected to fluorescence or electron microscopy assays described below. Control (no compound I′) reactions were normalized for DMSO vehicle, which was limited to 5% in all reactions.
(§4) Transmission Electron Microscopy. Aliquots (50 ml) of polymerization and depolymerization reactions were removed, fixed with glutaraldehyde (2%), and adsorbed (1 min) onto 300 mesh formvar/carbon-coated copper grids (Electron Microscopy Sciences; Ft. Washington, Pa.). […] Four to six random images from each experimental condition were captured on film at either 13,000× or 22,000× magnification, digitized, calibrated, and imported into Optimas 6.5.1 for quantitation of filament length and number as described previously (King et al., 2000). Individual filaments defined as any object greater than 50 nm in its long axis were counted manually. […] Length distributions were quantified in 100 nm-wide bins, beginning with 50-150 nm lengths and continuing 151-250 nm, 251-350 nm, etc.
To determine whether compound I′-mediated tau depolymerization proceeded by an endwise mechanism, htau40^C291A, C322A (4 mM) was polymerized over a 3.5 hour period after which time compound I′ (200 nM) or DMSO vehicle alone was added and filament lengths were measured over a 1 hour “chase” by electron microscopy. […]

[4] = system: Tau filaments isolated from AD brain; assay: Disassembly of authentic tau filaments, electron microscopy; assay type: biochemical, human; conditions: 2 mM compound; 20 min incubation; filaments 0.03 mg/ml
Procedure: The ability of compound I′ (2 mM) to depolymerize authentic filaments (0.033 mg/ml) was assayed as above except that timepoints were limited to 0, 10, and 20 min post addition.
Transmission Electron Microscopy. Aliquots (50 ml) of polymerization and depolymerization reactions were removed, fixed with glutaraldehyde (2%), and adsorbed (1 min) onto 300 mesh formvar/carbon-coated copper grids (Electron Microscopy Sciences; Ft. Washington, Pa.). The resultant grids were washed with water, stained (1 min) with 2% uranyl acetate (Electron Microscopy Sciences), washed again with water, blotted dry, and viewed in a Phillips CM 12 microscope operated at 65 kV. Four to six random images from each experimental condition were captured on film at either 13,000× or 22,000× magnification, digitized, calibrated, and imported into Optimas 6.5.1 for quantitation of filament length and number as described previously (King et al., 2000). Individual filaments defined as any object greater than 50 nm in its long axis were counted manually. Counts from each of the 4 to 6 random images per condition are reported as an average±standard deviation for both filament length and number. Length distributions were quantified in 100 nm-wide bins, beginning with 50-150 nm lengths and continuing 151-250 nm, 251-350 nm, etc.
Authentic PHF Disassembly. […]

htau40^C291A, C322A = target: T5, htau40^C291A, C322A (Homo sapiens, UniProt P10636, C608A/C639A); assay: Electron microscopy assay of tau filament formation; assay type: biochemical; conditions: 200 nM compound (1:40 molar ratio relative to tau), 8 µM htau40^C291A
T5 construct: synthetic straight filaments prepared from recombinant full-length tau; made in house
T5 sequence (P10636 1-441 isoform P10636-8 C291A/C322A): as the sequence (P10636 1-441 isoform P10636-8) above, with C291A, C322A counted along it
Procedure: as §3, with “Control reactions were normalized for DMSO vehicle, which was limited to 5% in all reactions.” left out
as §4, with “Microscopy.” for “Microscopy. Aliquots (50 ml) of polymerization and depolymerization reactions were removed, fixed with glutaraldehyde (2%), and adsorbed (1 min) onto 300 mesh formvar/carbon-coated copper grids (Electron Microscopy Sciences; Ft. Washington, Pa.).”, “etc. […]” for “etc.”

Ab fibrils = Ab fibrils (Homo sapiens, UniProt P05067); conditions: cited from earlier work
Chain of Ab fibrils (P05067 672-713 limits assumed): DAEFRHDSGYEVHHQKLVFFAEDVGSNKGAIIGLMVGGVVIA

[5] = approximate values given in the description, read-out: IC50, arachidonic acid polymerization of full length tau protein
[6] = after 1 hour incubation with 200 nM compound

IC50 [1]: 0.091 ± 0.013 µM
IC50 as % of the molar concentration of arachidonic acid (recombinant human htau40): < 0.1%
IC50 (recombinant human htau40; [5]): < 0.1 µM and ~0.06 µM
IC50 (recombinant human htau40; arachidonic acid-induced, 3.5 h, room temperature, % of DMSO vehicle control fluorescence, read-out: IC50, inhibition of htau40 polymerization (thioflavin S fluorescence)): 0.054 ± 0.006 µM
charge at physiological pH [2]: uncharged
initial first order rate of decrease of total filament length per field ([3]; 200 nM compound added to filaments polymerized 3.5 h): 0.042 min⁻¹
total filament length, % of vehicle only controls [3, 6]: 21±6%
total filament number, % of vehicle only controls [3, 6]: 84±26%
total filament number, % of control at 0.2 µM (htau40^C291A, C322A): 14.2 ± 0.6%
total filament number, % of control values (htau40^C291A, C322A): 10-20%
Compound: COc1ccc2nc(/N=N/c3ccc(N(C)C)cc3)sc2c1 [compound I′, 2-[[4-(dimethylamino)phenyl]azo]-6-methoxylbenzothiazole]
effect on Aβ1-40 polymerization / assembly kinetics (Aβ1-40): did not inhibit Aβ polymerization; also recorded: does not interfere with Aβ1-40 assembly; also recorded: did not alter Aβ1-40 assembly kinetics significantly
total filament length, % of DMSO vehicle control [4]: 14±9% and 10-50%

IC50 (recombinant human htau40; [5]): ~0.06 µM
Compound: COc1ccc2nc(N=Nc3ccc(N(C)c4ccccc4)cc3)sc2c1 [[4-(6-methoxy-benzothiazol-2-ylazo)phenyl]-methylphenyl amine]

IC50 (recombinant human htau40; [5]): ~0.06 µM
Compound: CCN(CC)c1ccc(N=Nc2nc3ccc(OC)cc3s2)cc1 [2-[[4-(didethylamino)phenyl]azo]-6-methoxybenzothiazole]

IC50 (recombinant human htau40; [5]): ~0.06 µM
Compound: CCN(CCO)c1ccc(N=Nc2nc3ccc(OC)cc3s2)cc1 [2-[[4-(N-ethyl-N-β-hydroxyethylamino)phenyl]azo]-6-methoxybenzothiazole]

The next lines start with the compound.

Compound: Nc1ccc(-c2nc3ccc(-c4nc5ccc(N)cc5[nH]4)cc3[nH]2)cc1 [Ro 90-7501]
effect on Ab fibrils (Ab fibrils): inhibit polymerization and promote disaggregation

Compound: Cc1ccc(N=Nc2ccc(-c3ccc(N=Nc4ccc(C)c(C(=O)O)c4O)cc3)cc2)c(O)c1C(=O)O [3-[4′-(3-carboxy-2-hydroxy4-methyl-cyclohexa-1,5-dienylazo)-biphenyl-4-ylazo]-2-hydroxy-6-methyl benzoic acid]
IC50 (recombinant human htau40; [5]): ~0.4 µM

Compound: Cc1cc(N=Nc2c(O)ccc3ccccc23)c(CCCC(=O)O)s1 [4-[3-(2-hydroxy-naphthalen-1-ylazo)-5-methyl-thiophen-2-yl]-butyric acid]
IC50 (recombinant human htau40; [5]): ~0.7 µM

Compound: O=C1Nc2ccccc2/C1=N/NC(=O)c1cc2ccccc2cc1O [Compound III, 3-hydroxy-napthalene-2-carboxylic acid (2-oxo-1,2-dihydro-indol-3-ylidene)-hydrazide]
IC50 (recombinant human htau40; [5]): ~0.6 µM

Compound: CCC(=Cc1sc2ccc(OC)cc2[n+]1CCO)C=C1Sc2ccc(OC)cc2N1CCO [3-(2-hydroxy-ethyl)-2-{2-[3-(2-hydroxyl-ethyl)-5-methoxy-3H-benzothiazol-2-ylidenemethyl]-but-1-enyl}-5-methoxy-benzothiazol-3-ium]
IC50 (recombinant human htau40; [5]): ~0.04 µM

Compound: thioflavin S [reference compound]
effect on tau polymerization at the concentration required for filament binding (recombinant human htau40; concentration about EC50 of binding): not sufficient to inhibit or reverse tau polymerization
